From patent US20170275270A1, “BENZYL SUBSTITUTED INDAZOLES” (Bayer Pharma Aktiengesellschaft, priority 2014, published 2017) come the findings set out here.

The target of this assay is T1, catalytic domain of human Bub1 (amino acids 704-1085) (Homo sapiens, UniProt O43683).
T1 construct: catalytic domain of human Bub1 (amino acids 704-1085); His6 (N); made in house; host or cells: Hi5 insect cells
Put plainly: Bub1 kinase assay (TR-FRET). The format is biochemical. How it is done: To this end, 100-fold concentrated compound solutions (in DMSO) were previously prepared by serial dilution (1:3.4) of 2 mM stocks in a clear low volume 384-well source microtiter plate (Greiner Bio-One, Frickenhausen, Germany), from which 50 nL of compounds were transferred into a black low volume test microtiter plate from the same supplier. […] The resulting mixture (5 μL final volume) was incubated at 22° C. during 60 min., and the reaction was stopped by the addition of 5 μL of an aqueous EDTA-solution (50 mM EDTA, in 100 mM HEPES pH 7.5 and 0.2% (w/v) bovine serum albumin) which also contained the TR-FRET detection reagents (0.2 μM streptavidin-XL665 [Cisbio Bioassays, Codolet, France] and 1 nM anti-phosho-Serine antibody [Merck Millipore, cat. #35-001] and 0.4 nM LANCE EU-W1024 labeled anti-mouse IgG antibody [Perkin-Elmer, product no. AD0077, alternatively a Terbium-cryptate-labeled anti-mouse IgG antibody from Cisbio Bioassays can be used]). The stopped reaction mixture was further incubated 1 h at 22° C. in order to allow the formation of complexes between peptides and detection reagents. Subsequently, the amount of product was evaluated by measurement of the resonance energy transfer from the Eu-chelate-antibody complex recognizing the Phosphoserine residue to the streptavidin-XL665 bound to the biotin moiety of the peptide. […] IC50 values were calculated by fitting the normalized inhibition data to a 4-parameter logistic equation (Minimum, Maximum, IC50, Hill; Y=Max+(Min−Max)/(1+(X/IC50) Hill)).

The mark [1] stands for this setting: Biological Assay 1: Bub1 kinase assay median IC50, 10 μM ATP.
The mark [2] stands for this setting: 10 μM ATP, read-out: Biological Assay 1: Bub1 kinase assay median IC50.

Counter-ions that a name gives are not always drawn. Like-named read-outs stand apart in the source and are kept apart here.

T1 sequence (O43683 704-1085): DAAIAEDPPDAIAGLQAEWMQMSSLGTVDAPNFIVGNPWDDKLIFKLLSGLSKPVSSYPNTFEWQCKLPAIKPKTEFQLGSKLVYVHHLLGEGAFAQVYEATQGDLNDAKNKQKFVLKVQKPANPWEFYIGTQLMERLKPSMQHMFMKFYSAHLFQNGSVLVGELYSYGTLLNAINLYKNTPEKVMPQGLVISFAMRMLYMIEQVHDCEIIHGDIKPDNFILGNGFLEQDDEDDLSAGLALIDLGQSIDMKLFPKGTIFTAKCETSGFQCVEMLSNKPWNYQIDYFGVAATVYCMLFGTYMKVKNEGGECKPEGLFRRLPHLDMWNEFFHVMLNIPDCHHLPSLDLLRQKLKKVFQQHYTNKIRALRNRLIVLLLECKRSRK

One may read the IC50 as the midpoint of a concentration-inhibition curve. Consider `COCCOc1cc(F)c(Cn2nc(-c3nc4c(c(Nc5ccnc(C)n5)n3)COCC4)c3ccccc32)c(F)c1` [Example 2-12-100, 2-{1-[2,6-difluoro-4-(2-methoxyethoxy)benzyl]-1H-indazol-3-yl}-N-(2-methylpyrimidin-4-yl)-7,8-dihydro-5H-pyrano[4,3-d]pyrimidin-4-amine], for which the midpoint of inhibition under setting [1], the IC50, lay at 99 nM. `CC(=O)Nc1cc(Nc2nc(-c3nn(Cc4c(F)cc(OCCO)cc4F)c4ccccc34)nc3c2CCC(C)(C)C3)ccn1` [Example 2-6-42, N-{4-[(2-{1-[2,6-difluoro-4-(2-hydroxyethoxy)benzyl]-1H-indazol-3-yl}-7,7-dimethyl-5,6,7,8-tetrahydroquin-azolin-4-yl)amino]pyridin-2-yl}acetamide] yielded an IC50 under setting [1] of 14 nM. On to `COCc1cc(Nc2ccncc2OC)nc(-c2nn(Cc3c(F)cc(OCCO)cc3F)c3ccccc23)n1` [Example 2-12-49, 2-{3,5-difluoro-4-[(3-{4-(methoxymethyl)-6-[(3-methoxypyridin-4-yl)amino]pyrimidin-2-yl}-1H-indazol-1-yl)methyl]phenoxy}eth-anol], for which the IC50 under setting [2] amounted to 8.8 nM. `COCCOc1cc(F)c(Cn2nc(-c3nc4c(c(Nc5ccnc(C)n5)n3)CCC4)c3ccccc32)c(F)c1` [Example 2-12-55, 2-{1-[2,6-difluoro-4-(2-methoxyethoxy)benzyl]-1H-indazol-3-yl}-N-(2-methylpyrimidin-4-yl)-6,7-dihydro-5H-cyclopenta[d]pyrimidin-4-amine] had an IC50 under setting [1] of 44 nM. Take `COCCOc1cc(F)c(Cn2nc(-c3nc(CN4CCOCC4)cc(Nc4ccncn4)n3)c3ccccc32)c(F)c1` [Example 2-12-37, 2-{1-[2,6-difluoro-4-(2-methoxyethoxy)benzyl]-1H-indazol-3-yl}-6-(morpholin-4-ylmethyl)-N-(pyrimidin-4-yl)pyrimidin-4-amine]: it took 17 nM to reach half-maximal inhibition under setting [1] (IC50). For `COCCOc1cc(F)c(Cn2nc(-c3nc4c(c(Nc5ccnc(C)n5)n3)CNC4)c3ccccc32)c(F)c1` [Example 2-9-25, 2-{1-[2,6-difluoro-4-(2-methoxy-ethoxy)benzyl]-1H-indazol-3-yl}-N-(2-methylpyrimidin-4-yl)-6,7-dihydro-5H-pyrrolo[3,4-d]pyrimidin-4-amine, salt with hydrochloric acid], half-maximal inhibition under setting [1] (IC50) was put at 77 nM.

On to `COCCOc1cc(F)c(Cn2nc(-c3nc4c(c(Nc5ccncc5OC)n3)CCC(C)(C)C4)c3ccccc32)c(F)c1` [Example 2-15-11, 2-{1-[2,6-difluoro-4-(2-methoxyethoxy)benzyl]-1H-indazol-3-yl}-N-(3-methoxypyridin-4-yl)-7,7-dimethyl-5,6,7,8-tetrahydroquinazolin-4-amine], for which the IC50 under setting [1] stood at 1700 nM.

Compound `CS(=O)(=O)Cc1cnc(-c2nn(Cc3c(F)cc(OCCO)cc3F)c3ccccc23)nc1N(CCO)c1ccncc1` [Example 2-4-4, 2-[(2-{1-[2,6-difluoro-4-(2-hydroxyethoxy)benzyl]-1H-indazol-3-yl}-5-[(methylsulfonyl)methyl]pyrimidin-4-yl)(pyridin-4-yl)amino]ethanol] returned an IC50 under setting [1] of 480 nM. Turning to `COCCOc1cc(F)c(Cn2nc(-c3nc(C)cc(Nc4ccncc4OC)n3)c3ccccc32)c(F)c1` [Example 2-12-77, 2-{1-[2,6-difluoro-4-(2-methoxyethoxy)benzyl]-1H-indazol-3-yl}-N-(3-methoxypyridin-4-yl)-6-methylpyrimidin-4-amine], the IC50 under setting [2] is 6.7 nM.

Under setting [1], `COCCOc1cc(F)c(Cn2nc(-c3nc4c(c(Nc5ccncn5)n3)CNC4)c3ccccc32)c(F)c1` [Example 2-9-27, 2-{1-[2,6-difluoro-4-(2-methoxy-ethoxy)benzyl]-1H-indazol-3-yl}-N-(pyrimidin-4-yl)-6,7-dihydro-5H-pyrrolo[3,4-d]pyr-imidin-4-amine, salt with hydrochloric acid] showed an IC50 of 20 nM. In the case of `CCOc1cc(F)c(Cn2nc(-c3nc(C)c(CC)c(Nc4ccncc4)n3)c3ccccc32)c(F)c1` [Example 2-12-8, 2-[1-(4-ethoxy-2,6-difluorobenzyl)-1H-indazol-3-yl]-5-ethyl-6-methyl-N-(pyridin-4-yl)pyrimidin-4-amine], the concentration for half-maximal inhibition (IC50) under setting [1] is 16 nM. Under setting [1], `CCOc1cc(F)c(Cn2nc(-c3ncc(CCNCC(F)(F)F)c(Nc4ccnc(C)n4)n3)c3ccccc32)c(F)c1` [Example 2-20-13, 2-[1-(4-ethoxy-2,6-difluorobenzyl)-1H-indazol-3-yl]-N-(2-methylpyrimidin-4-yl)-5-{2-[(2,2,2-trifluoroethyl)amino]ethyl}pyrimidin-4-amine] showed an IC50 of 560 nM.

Under setting [1], `CCOc1cc(F)c(Cn2nc(-c3ncc(CCCOC)c(Nc4ccncc4C(=O)O)n3)c3ccccc32)c(F)c1` [Example 2-2-10, 4-({2-[1-(4-ethoxy-2,6-difluorobenzyl)-1H-indazol-3-yl]-5-(3-methoxypropyl)pyrimidin-4-yl}amino)nicotinic acid] registered an IC50 of 20 nM. The compound `COCCOc1cc(F)c(Cn2nc(-c3ncc(C4CCN(CC(F)F)CC4)c(Nc4ccnc(C)n4)n3)c3ccccc32)c(F)c1` [Example 2-20-11, 5-[1-(2,2-difluoroethyl)piperidin-4-yl]-2-{1-[2,6-difluoro-4-(2-methoxyethoxy)benzyl]-1H-indazol-3-yl}-N-(2-methylpyrimidin-4-yl)pyrimidin-4-amine] had an IC50 under setting [1] of 63 nM. The compound `CCOc1cc(F)c(Cn2nc(-c3nc4c(c(Nc5ccncc5C)n3)COC4)c3ccccc32)c(F)c1` [Example 2-19-18, 2-[1-(4-ethoxy-2,6-difluorobenzyl)-1H-indazol-3-yl]-N-(3-methylpyridin-4-yl)-5,7-dihydrofuro[3,4-d]pyrimidin-4-amine] yielded an IC50 under setting [1] of 84 nM. The compound `COCCOc1cc(F)c(Cn2nc(-c3nc4c(c(Nc5ccnc(C)n5)n3)CN(CC(F)(F)F)C4)c3ccccc32)c(F)c1` [Example 2-20-16, 2-{1-[2,6-difluoro-4-(2-methoxyethoxy)benzyl]-1H-indazol-3-yl}-N-(2-methylpyrimidin-4-yl)-6-(2,2,2-trifluoroethyl)-6,7-dihydro-5H-pyrrolo[3,4-d]pyrimidin-4-amine] came in with an IC50 under setting [1] of 120 nM. For `COCCOc1cc(F)c(Cn2nc(-c3nc(Nc4ccncc4OC)cc(C(C)C)n3)c3ccccc32)c(F)c1` [Example 2-12-73, 2-{1-[2,6-difluoro-4-(2-methoxyethoxy)benzyl]-1H-indazol-3-yl}-6-isopropyl-N-(3-methoxypyridin-4-yl)pyrimidin-4-amine], the IC50 under setting [2] was 15 nM.

Compound `COCCOc1cc(F)c(Cn2nc(-c3nc4c(c(Nc5ccncn5)n3)CCC4)c3ccccc32)c(F)c1` [Example 2-12-56, 2-{1-[2,6-difluoro-4-(2-methoxyethoxy)benzyl]-1H-indazol-3-yl}-N-(pyrimidin-4-yl)-6,7-dihydro-5H-cyclopenta[d]pyrimidin-4-amine] came in with an IC50 under setting [1] of 7 nM. The same measure, in the same setting: to `CCOc1cc(F)c(Cn2nc(-c3nc4c(c(Nc5ccnc(C(F)F)c5)n3)CS(=O)(=O)C4)c3ccccc32)c(F)c1` [Example 2-19-14, N-[2-(difluoromethyl)pyridin-4-yl]-2-[1-(4-ethoxy-2,6-difluorobenzyl)-1H-indazol-3-yl]-5,7-dihydrothieno[3,4-d]pyrimidin-4-amine 6,6-dioxide] belongs 460 nM; to `Cc1nccc(Nc2cc(C(C)C)nc(-c3nn(Cc4c(F)cc(OCCO)cc4F)c4ccccc34)n2)n1` [Example 2-6-28, 2-{3,5-difluoro-4-[(3-{4-isopropyl-6-[(2-methylpyrimidin-4-yl)amino]pyrimidin-2-yl}-1H-indazol-1-yl)methyl]phenoxy}ethanol], 510 nM; to `COc1cnccc1Nc1nc(-c2nn(Cc3c(F)cc(OCCO)cc3F)c3ccccc23)nc2c1CCCCC2` [Example 2-6-44, 2-{3,5-difluoro-4-[(3-{4-[(3-methoxypyridin-4-yl)amino]-6,7,8,9-tetrahydro-5H-cyclohepta[d]pyrimidin-2-yl}-1H-indazol-1-yl)methyl]phenoxy}ethanol], 12 nM. `Cc1cnccc1Nc1nc(-c2nn(Cc3c(F)cc(O)cc3F)c3ccccc23)nc2c1CCC2` [Example 2-6-5, 3,5-difluoro-4-[(3-{4-[(3-methylpyridin-4-yl)amino]-6,7-dihydro-5H-cyclopenta[d]pyrimidin-2-yl}-1H-indazol-1-yl)methyl]phenol] came in with an IC50 under setting [1] of 7.7 nM.

`CCOc1cc(F)c(Cn2nc(-c3nc(Nc4ccnc(NC(C)=O)c4)cc(C4CCOCC4)n3)c3ccccc32)c(F)c1` [Example 2-12-90, N-[4-({2-[1-(4-ethoxy-2,6-difluorobenzyl)-1H-indazol-3-yl]-6-(tetrahydro-2H-pyran-4-yl)pyrimidin-4-yl}amino)pyridin-2-yl]acetamide] had an IC50 under setting [1] of 11 nM. For `CCOc1cc(F)c(Cn2nc(-c3ncc(CC4CNC4)c(Nc4ccnc(C)n4)n3)c3ccccc32)c(F)c1` [Example 2-9-20, 5-(azetidin-3-ylmethyl)-2-[1-(4-ethoxy-2,6-difluorobenzyl)-1H-indazol-3-yl]-N-(2-methylpyrimidin-4-yl)pyrimidin-4-amine, salt with hydrochloric acid], the IC50 under setting [2] worked out at 49 nM.
